Results from the supplement of paper PMC10307832.

How the values were obtained:
Assay in all cases: relative viability (nuclei count vs DMSO), 5 days (fraction); higher = more cells survive
[1] = compound: COc1nc(N)nc2c1ncn2[C@@H]1O[C@H](CO)[C@@H](O)[C@@H]1O [Nelarabine] + Cc1cc(Nc2cc(N3CCN(C)CC3)nc(Sc3ccc(NC(=O)C4CC4)cc3)n2)n[nH]1 [Tozasertib] (partner 0.1 µM)
Outline: (§1)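 Lung cancer cell lines were pin-tool dosed in 1536-well plates on the day after seeding, with either a lone drug or a fixed anchor-drug dose plus five library-drug doses (not always all listed) in √10 steps. Nuclei were counted on 4× images after 5 days. Relative viability is the ratio of treated-well to vehicle-well nuclei counts, with each value a median of duplicate plates.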

[2] = compound: C=CCn1c(=O)c2cnc(Nc3ccc(N4CCN(C)CC4)cc3)nc2n1-c1cccc(C(C)(C)O)n1 [Adavosertib] + Nc1ncn([C@H]2C[C@H](O)[C@@H](CO)O2)c(=O)n1 [Decitabine] (partner 2 µM)
Outline: as §1

[3] = compound: C=CCn1c(=O)c2cnc(Nc3ccc(N4CCN(C)CC4)cc3)nc2n1-c1cccc(C(C)(C)O)n1 [Adavosertib] + C[C@@H](Oc1cc(-c2cnn(C3CCNCC3)c2)cnc1N)c1c(Cl)ccc(F)c1Cl [Crizotinib] (partner 1 µM)
Outline: as §1

[4] = compound: COc1nc(N)nc2c1ncn2[C@@H]1O[C@H](CO)[C@@H](O)[C@@H]1O [Nelarabine] + O=C(CCCCCCC(=O)Nc1ccccc1)NO [Vorinostat] (partner 1 µM)
Outline: as §1

Cell Line | relative viability ([1]; first compound 0.01 µM) | relative viability ([1]; first compound 0.03162 µM) | relative viability ([1]; first compound 0.1 µM) | relative viability ([1]; first compound 0.3162 µM) | relative viability ([1]; first compound 1 µM) | relative viability ([2]; first compound 0.01 µM) | relative viability ([2]; first compound 0.03162 µM) | relative viability ([2]; first compound 0.1 µM) | relative viability ([2]; first compound 0.3162 µM) | relative viability ([3]; first compound 0.01 µM) | relative viability ([3]; first compound 0.03162 µM) | relative viability ([3]; first compound 0.1 µM) | relative viability ([3]; first compound 0.3162 µM) | relative viability ([4]; first compound 0.01 µM) | relative viability ([4]; first compound 0.03162 µM) | relative viability ([4]; first compound 0.1 µM) | relative viability ([4]; first compound 0.3162 µM) | relative viability ([4]; first compound 1 µM)
NCI-H1915 | 0.576 | 0.417 | 0.633 | 0.475 | 0.459 | 0.262 | 0.251 | 0.272 | 0.282 | 0.941 | 0.812 | 0.981 | 1 | 0.599 | 0.544 | 0.488 | 0.573 | 0.57
COR-L23 | 0.199 | 0.165 | 0.168 | 0.22 | 0.185 | 0.45 | 0.523 | 0.45 | 0.277 | 0.69 | 0.731 | 0.797 | 0.304 | 0.471 | 0.416 | 0.511 | 0.427 | 0.456
NCI-H1975 | 0.69 | 0.689 | 1.05 | 0.911 | 0.926 | 0.37 | 0.412 | 0.439 | 0.399 | 0.962 | 0.952 | 0.904 | 0.625 | 0.87 | 0.7 | 0.778 | 0.796 | 0.76
RERF-LC-KJ | 0.558 | 0.483 | 0.456 | 0.5 | 0.513 | 0.669 | 0.718 | 0.775 | 0.714 | 0.795 | 0.815 | 0.94 | 0.925 | 0.749 | 0.754 | 0.623 | 0.72 | 0.727
HCC-15 | 0.48 | 0.268 | 0.377 | 0.412 | 0.39 | 0.714 | 0.719 | 0.667 | 0.858 | 0.826 | 0.818 | 0.96 | 0.967 | 1.1 | 0.905 | 0.829 | 0.887 | 0.973
EKVX | 0.463 | 0.476 | 0.449 | 0.372 | 0.395 | 0.329 | 0.388 | 0.383 | 0.4 | 1.13 | 0.952 | 0.776 | 1.06 | 0.81 | 0.667 | 0.585 | 0.817 | 0.788
NCI-H2347 | 0.659 | 0.443 | 0.523 | 0.565 | 0.225 | 0.637 | 0.595 | 0.65 | 0.621 | 0.72 | 0.778 | 0.772 | 0.699 | 0.584 | 0.69 | 0.569 | 0.61 | 0.455
NCI-H1944 | 0.285 | 0.239 | 0.252 | 0.27 | 0.253 | 0.415 | 0.439 | 0.448 | 0.369 | 1.14 | 1.11 | 1.17 | 1.13 | 0.669 | 0.549 | 0.54 | 0.559 | 0.538
SK-MES-1 | 1 | 0.89 | 0.944 | 0.924 | 0.937 | 0.368 | 0.385 | 0.364 | 0.227 | 0.92 | 1.02 | 0.983 | 0.791 | 1.36 | 1.12 | 1.18 | 1.36 | 1.3
ChaGo-K-1 | 0.237 | 0.205 | 0.193 | 0.232 | 0.231 | 0.554 | 0.518 | 0.469 | 0.534 | 1.05 | 1.05 | 1.21 | 1.12 | 0.972 | 0.645 | 0.723 | 0.741 | 0.771
NCI-H596 | 1.07 | 0.835 | 0.879 | 0.862 | 0.827 | 1.1 | 1.02 | 1.02 | 0.866 | 1.04 | 1.07 | 1.11 | 1.03 | 0.546 | 0.608 | 0.613 | 0.671 | 0.661
NCI-H3122 | 0.547 | 0.403 | – | 0.434 | 0.534 | 0.41 | 0.49 | 0.484 | 0.494 | 0.287 | 0.241 | 0.294 | 0.271 | 1.38 | 0.833 | – | 1.17 | 1.02
LXF-289 | 0.222 | 0.234 | 0.173 | 0.232 | 0.233 | 0.362 | 0.411 | 0.399 | 0.358 | 0.8 | 0.841 | 0.88 | 0.849 | 0.84 | 0.698 | 0.674 | 0.807 | 0.662
NCI-H2126 | 0.968 | 0.864 | 0.779 | 0.809 | 0.824 | 0.518 | 0.596 | 0.512 | 0.568 | 1.05 | 1.01 | 1.08 | 1.07 | 0.945 | 0.803 | 0.689 | 0.691 | 0.816
HOP-62 | 0.434 | 0.305 | 0.42 | 0.364 | 0.402 | 0.27 | 0.239 | 0.229 | 0.223 | 0.986 | 0.905 | 1.04 | 0.955 | 0.783 | 0.618 | 0.669 | 0.708 | 0.638
NCI-H647 | 0.347 | 0.207 | 0.387 | 0.24 | 0.247 | 0.432 | 0.455 | 0.456 | 0.322 | 1.2 | 1.08 | 0.967 | 0.593 | 0.764 | 0.798 | 0.716 | 0.456 | 0.583
NCI-H2170 | 0.81 | 0.689 | 0.767 | 0.88 | 0.73 | 0.426 | 0.452 | 0.5 | 0.429 | 1.23 | 1.17 | 1.19 | 1.35 | 1.09 | 0.835 | 0.742 | 0.878 | 0.71
NCI-H2023 | 0.416 | 0.41 | 0.39 | 0.33 | 0.422 | 0.203 | 0.224 | 0.191 | 0.141 | 0.717 | 0.681 | 0.573 | 0.551 | 0.793 | 0.821 | 0.525 | 0.71 | 0.687
